Reference: patent publication US8492374B2, “Azaazulene compounds” (Industrial Technology Research Institute, priority 2009, dated 2013)

Tests used:
FLT-3 kinase = target: T1, FLT-3 kinase (Homo sapiens, UniProt P36888); test: FLT-3 kinase DELFIA assay (HTScan FLT-3 Kinase Assay Kit); format: biochemical; conditions: 20 uM ATP; for inhibition at 0.1 µM: 0.1 uM compound; for inhibition at 1 µM: 1 uM compound
T1 construct: human FLT-3 (Arg571-Ser993); GST (N); purchased Cell Signaling Technology HTScan FLT-3 Kinase Assay Kit; host or cells: baculovirus expression system
T1 sequence (P36888 571-993): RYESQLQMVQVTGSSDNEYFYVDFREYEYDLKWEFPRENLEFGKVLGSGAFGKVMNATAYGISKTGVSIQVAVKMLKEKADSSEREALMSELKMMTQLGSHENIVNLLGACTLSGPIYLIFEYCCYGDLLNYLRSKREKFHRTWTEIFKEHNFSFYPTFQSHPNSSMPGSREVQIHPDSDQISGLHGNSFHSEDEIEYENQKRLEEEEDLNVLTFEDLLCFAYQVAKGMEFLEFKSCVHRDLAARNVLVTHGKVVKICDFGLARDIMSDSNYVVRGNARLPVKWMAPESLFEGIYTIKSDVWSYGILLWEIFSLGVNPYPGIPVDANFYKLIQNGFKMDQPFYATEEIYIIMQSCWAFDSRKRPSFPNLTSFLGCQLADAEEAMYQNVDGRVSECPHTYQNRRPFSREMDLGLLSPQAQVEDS
Description: Azaazulene Compounds of this invention were treated for their efficacy in inhibiting activities of FLT-3, c-KIT and KDR kinases by biochemical DELFIA (Dissociation Enhanced Lanthanide FIA) assays according to the procedure described below. The assays were conducted by, Division of Cell Engineering, Biomedical Engineering Research Laboratories, Industrial Technology Research Institute, Bldg. 53, 195, sec. 4, Chung Hsing Rd. Chutung, Hsinchu, Taiwan 310, R.O.C.
The FLT-3 assay was conducted following the protocol described in Protocol for HTScang FLT-3 Kinase Assay Kit (Cell Signaling Technology®).

[1] = system: MV4-11 (FLT3-ITD) cell line; test: In vitro cell activity assay (MTT cell viability, 72 hours); format: cell-based; conditions: Homo sapiens, 72 hours at 37° C., 10,000 cells per well, read-out: IC50 against MV4-11
Description: Human MV4-11 (FLT3-ITD) cell line was obtained from American Tissue Culture Collection (ATCC number: CRL-9591). The cell line was cultured with RPMI 1640 containing 10% fetal bovine serum, 1 mmol/L sodium pyruvate and 10 mmol/L HEPES (pH 7.4). The cell was grown and maintained in a humidified atmosphere at 37° C. and 5% carbon dioxide.
MV4-11 cell was plated in 96-well microtiter plates (10,000 cells per well) and serial dilutions of indicated compounds were added. At the end of the incubation period (72 hours at 37° C.), cell viability was determined by a tetrazolium dye, MTT (3-(4,5-dimethylthiazol-2-yl)-2,5-diphenyl tetrazolium bromide) (Promega, Madison, Wis.). The formazan crystals were dissolved by DMSO, and the absorbance at a wavelength of 600 nm was recorded using an ELISA plate reader. IC50 values were calculated using nonlinear regression and defined as the concentration needed for a 50% reduction in absorbance of treated versus untreated control cells.

Row | SMILES | inhibition at 0.1 µM (FLT-3 kinase) [%] | inhibition at 1 µM (FLT-3 kinase) [%] | IC50 [1] [nM]
1 | O=c1[nH]c2cccccc-2c1-c1nc2cc(N3CCN(Cc4ccc(Br)o4)CC3)ccc2[nH]1 [Compound B46] | 27.4 | 79.2 | 314
2 | O=c1[nH]c2cccccc-2c1-c1nc2cc(N3CCN(Cc4ccncc4)CC3)ccc2[nH]1 [Compound B47] |  |  | 300
3 | O=c1[nH]c2cccccc-2c1-c1nc2cc(N3CCN(Cc4cccnc4)CC3)ccc2[nH]1 [Compound B48] |  |  | 148
4 | O=c1[nH]c2cccccc-2c1-c1nc2cc(N3CCN(Cc4ccccn4)CC3)ccc2[nH]1 [Compound B49] | 21.9 | 72.2 | 249
5 | CN1CCN(c2cc3nc(-c4c5cccccc-5[nH]c4=O)[nH]c3cc2F)CC1 [Compound B50] | 25.1 | 79.6 | 50.7
6 | CN1CCN(c2ccc3[nH]c(-c4c5cccccc-5[nH]c4=O)nc3c2F)CC1 [Compound B51] | 20.6 | 66.6 | 99.1
7 | CN1CCN(c2c(F)cc3[nH]c(-c4c5cccccc-5[nH]c4=O)nc3c2F)CC1 [Compound B52] | 20.3 | 42.5 | 635
8 | O=CN1CCN(c2ccc3[nH]c(-c4c5cccccc-5[nH]c4=O)nc3c2)CC1 [Compound B54] | 46 | 91.6 | 74
9 | O=C(Nc1ccccc1)N1CCN(c2ccc3[nH]c(-c4c5cccccc-5[nH]c4=O)nc3c2)CC1 [Compound B55] | 45.2 | 93.2 | 93.8
10 | CS(=O)(=O)N1CCN(c2ccc3[nH]c(-c4c5cccccc-5[nH]c4=O)nc3c2)CC1 [Compound B57] | 29.5 | 81.5 | 104
11 | O=c1[nH]c2cccccc-2c1-c1nc2cc(N3CCN(S(=O)(=O)CCCl)CC3)ccc2[nH]1 [Compound B58] | 35.7 | 83.8 | 67.2
12 | CN1CCCN(c2c(F)cc3[nH]c(-c4c5cccccc-5[nH]c4=O)nc3c2F)CC1 [Compound B86] |  |  | 253
13 | O=c1[nH]c2cccccc-2c1-c1nc2cc(N3CCC(O)CC3)ccc2[nH]1 [Compound B107] | 42.5 | 92.9 | 
14 | CN(C)[C@@H]1CCN(c2ccc3[nH]c(-c4c5cccccc-5[nH]c4=O)nc3c2)C1 [Compound B110] | 36.5 | 84.9 | 
15 | O=c1[nH]c2cccccc-2c1-c1nc2cc(-n3nccn3)ccc2[nH]1 [Compound B116] | 36.3 | 62.7 | 
16 | O=C(Nc1ccccc1)Nc1ccc2[nH]c(-c3c4cccccc-4[nH]c3=O)nc2c1 [Compound B121] |  |  | 100 to 500
17 | O=C(Nc1ccc2[nH]c(-c3c4cccccc-4[nH]c3=O)nc2c1)Nc1c(Cl)cncc1Cl [Compound B122] |  |  | > 5000
18 | CCc1cccc(C)c1NC(=O)Nc1ccc2[nH]c(-c3c4cccccc-4[nH]c3=O)nc2c1 [Compound B123] |  |  | 1000 to 5000
19 | O=C(Nc1ccc2[nH]c(-c3c4cccccc-4[nH]c3=O)nc2c1)NC1CCCCC1 [Compound B124] |  |  | ~5000
20 | O=C(Nc1ccc2[nH]c(-c3c4cccccc-4[nH]c3=O)nc2c1)Nc1ccccc1F [Compound B125] |  |  | 680
21 | O=C(Nc1cccc(F)c1)Nc1ccc2[nH]c(-c3c4cccccc-4[nH]c3=O)nc2c1 [Compound B126] |  |  | > 5000
22 | O=C(Nc1ccc(F)cc1)Nc1ccc2[nH]c(-c3c4cccccc-4[nH]c3=O)nc2c1 [Compound B127] |  |  | ~1000
23 | O=C(Nc1ccc2[nH]c(-c3c4cccccc-4[nH]c3=O)nc2c1)Nc1ccc(F)cc1F [Compound B128] |  |  | 1000 to 5000
24 | O=C(Nc1ccc2[nH]c(-c3c4cccccc-4[nH]c3=O)nc2c1)Nc1c(F)cccc1F [Compound B129] |  |  | > 5000
